# Experiments:
# [1] = tested on: spontaneously hypertensive rat (SHR); experiment: Urodynamic study in SHR under un-anesthesia; type: in vivo
# Method: 12˜18 Week-old male SHRs were purchased from Charles River (Japan) and used. Day and night were controlled by a 12 hour cycle, and they were allowed to access to food and water freely. All the rats had to urinate at 3-5 cycles under a condition with no administration. The micturition parameters of rats under a condition with no administration were considered as control groups for urodynamic parameters, while the rats, to which the water extract of Piper Longum L. fruits prepared in Preparation Example 4.2 was directly administered into gastrointestinal tracts at 300 mg/kg via catheters coupled to stomachs, became experimental groups. As a positive control group, rats administered with tolterodine at 1 mg/kg were used. The Piper Longum L. water extract and tolterodine-dosing groups were each set by 6 rats.
# To measure bladder pressure, bladder capacity, voiding volume and micturition interval, which are parameters for identifying improvement of voiding dysfunction, insertion of a bladder tube and a vessel for measuring an abdominal pressure was carried out in SHR models. For cystometry and injection of a physiological saline solution, a rat was incised in center of its lower abdomen 3 days before the day of measuring urodynamic parameters, and a cuffed polyethylene catheter with a cuff (PE-50, Becton Dickinson, Parsippany, USA) was fixed on its bladder dome with purse-string suture. In addition, a polyethylene catheter (PE-10, Becton Dickinson, Parsippany, USA) with a balloon for measuring abdominal pressure was fixed on the bladder, and another polyethylene catheter (PE-10, Becton Dickinson, Parsippany, USA) was fixed following being inserted in the gastrointestinal tract. The above catheters were passed through beneath skin, and then fixed on dorsal skin, the ends of which were closed by applying heat. An un-anesthetized rat being free was placed in a metabolic cage at 3 days after inserting a bladder tube and a vessel for measuring an abdominal pressure. The tube on the back of its neck was coupled to a microinjection pump (PHD22/2000 pump; Harvard Apparatus) and a pressure transducer (Research Grade Blood Pressure Transducer; Harvard Apparatus, Holliston, USA) with a T-tube, and then intravesical pressures were measured, with injecting the physiological saline solution at room temperate at a speed of 10 ml/hour. It is to measure intravesical pressures in the rat using a principle that when a predetermined volume of physiological saline solution is filled in the bladder, it is contracted to urinate. The abdominal pressure was measured by coupling the vessel for measuring abdominal pressure to the other pressure transducer. Also, to measure a voiding volume being an indicator of volume parameter, the voiding volume was measured from a urine amount collected in a urine collector cup (fluid collector) coupled to a force displacement transducer (Research Grade Isometric Transducer; Harvard Apparatus).
# Beginning to measure urodynamic parameters before administration of the extracts of Piper Longum L. and tolterodine, records of 3 to 5 stabilized micturition cycles were obtained. Then, the Piper Longum L. extracts and tolterodine were orally administered after decoupling the catheter. The catheters were again coupled thereto 20 minutes after oral administration of drugs, and voiding cycles and urodynamic study were carried out by having the rat to urinate 3 to 5 times. The average values of each parameter were measured by selecting the most representative 3 continuous cycles from voiding cycles measured before and after administration of drug.
# In 3 repeated voiding cycles, a basal pressure (BP), which is an parameter of intravesical pressure, is the lowest pressure in cystometry, a threshold pressure (TP) is a pressure immediately before micturition contraction, and a micturition pressure (MP) means the maximum bladder pressure represented on voiding. […]
# [2] = tested on: CYP-induced cystitis rat model; experiment: Cystometry in CYP-induced cystitis model, ethanol and water extracts (Example 6.3); type: in vivo; settings: extracts 200 mg/kg, oxybutynin 0.3 mg/kg
# Method: (§1) To measure bladder pressure, bladder capacity and voiding volume, which are parameters for identifying improvement of voiding dysfunction, cyclophosphamide (150 mg/kg) was once intraperitoneally administered to rats excluding a normal control group to induce irritable bladder symptoms at 3 days before cystometry. From 3 Days before cystometry, a solvent (DMSO/10% Cremophor EL=1:9, vol/vol) had been administrated to a solvent control group, and 95% by volume of aqueous ethanol solution extract of Piper Longum L. fruits prepared in Preparation Example 4.1 had been administrated to an experimental group at 200 mg/kg. In addition, oxybutynin as a positive control group was injected via a caudal vein at 0.3 mg/kg on the day of experiment.
# (§2) For cystometry and injection of a physiological saline solution, instruments for cystometry and insertion of a bladder vessel were the same as in the above Example 5.2, and voiding volume and residual volume were recorded by sampling urine in a 1.5 ml tube and measuring its weight.
# The basal pressure (BP), threshold pressure (TP), micturition pressure (MP) and micturition interval (MI) which are defined as in the above Example 5.2. […] A bladder capacity (BC) was calculated by combining the measured residual volume (RV) and voiding volume (VV) of the rat. […]
# [3] = tested on: CYP-induced cystitis rat model; experiment: Cystometry in CYP-induced cystitis model after dosing for 3 days (Example 6.2); type: in vivo; settings: extract 200 mg/kg from 3 days before cystometry; oxybutynin 0.3 mg/kg via caudal vein on the day
# Method: 65 of specific pathogen-free (SPF) SD female rats were purchased from ORIENT (Korea) and used. Day and night were controlled by a 12 hour cycle, and they were allowed to access to food and water freely.
# as §1, §2
# The basal pressure (BP), threshold pressure (TP), micturition pressure (MP) and micturition interval (MI) which are defined as in the above Example 5.2. In addition, a voiding volume being an parameter of volume parameter was defined by sampling urine in a 1.5 ml tube on the last voiding during urodynamic measurements and measuring its weight. After completing micturition, a residual volume was defined by placing the catheter inserted into bladder at the lower portion than the rat and measuring the weight of the obtained physiological saline. A bladder capacity (BC) was calculated by combining the measured residual volume (RV) and voiding volume (VV) of the rat.
# The voiding cycles were measured for 120 minutes, and the average values of each parameter were calculated by selecting the most representative 5 continuous cycles among the measured voiding cycles.
# muscarinic M2 receptor = biological target: T1, muscarinic M2 receptor (Homo sapiens, UniProt P08172); experiment: Relief of acetylcholine inhibition of forskolin-induced cAMP in human bladder smooth muscle cells (ELISA); type: cell-based; settings: 10 μM, with Forskolin 10 μM + ACh 10 μM
# T1 construct: The human bladder smooth muscle Cells (hBdSMC) where the muscarinic M2 receptor had been expressed were purchased from Lonza; host or cells: human bladder smooth muscle cells (hBdSMC)
# T1 sequence (P08172 1-466): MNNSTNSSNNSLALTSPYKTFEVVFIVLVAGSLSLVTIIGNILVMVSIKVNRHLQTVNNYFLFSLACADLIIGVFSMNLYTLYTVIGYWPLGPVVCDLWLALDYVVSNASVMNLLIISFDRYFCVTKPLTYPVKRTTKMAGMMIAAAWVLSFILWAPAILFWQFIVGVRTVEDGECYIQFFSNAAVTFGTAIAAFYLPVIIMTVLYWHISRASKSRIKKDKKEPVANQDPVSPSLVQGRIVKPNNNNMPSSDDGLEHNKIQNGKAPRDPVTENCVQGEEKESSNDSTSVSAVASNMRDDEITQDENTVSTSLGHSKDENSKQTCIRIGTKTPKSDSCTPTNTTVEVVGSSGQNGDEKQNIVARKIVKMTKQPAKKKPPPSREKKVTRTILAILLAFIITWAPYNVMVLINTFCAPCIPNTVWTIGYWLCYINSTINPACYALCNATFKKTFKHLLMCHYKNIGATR
# Source text: It is known that when muscarinic M2 receptor, which is one of GPCR (G protein-coupled receptors), is coupled with acetylcholine being an agonist it inhibits activity of adenylyl cyclase enzyme to decrease a concentration of cAMP in cells, in which if the amount of cAMP increases, detrusor is relaxed, or otherwise if the amount of cAMP decreases, detrusor is contracted. Therefore, in confirming improvement of voiding dysfunction, it is important to identify an effect of being capable of increasing or decreasing the amount of cAMP. Accordingly, it was identified whether or not the extract of Piper Longum L. has activity of inhibiting muscarinic receptor that may inhibit decrease of a concentration of cAMP by acetylcholine, by pre-treating 95% by volume of aqueous solution of ethanol extract of Piper Longum L., treating it with acetylcholine which may serve as an activator of muscarinic M2 receptor to induce decrease of a concentration of cAMP, and treating it with Forskolin that may raise a concentration of cAMP in cells. More specifically, the procedure is as follows.
# The human bladder smooth muscle Cells (hBdSMC) where the muscarinic M2 receptor had been expressed were purchased from Lonza (cambrex), and used. […] The amount of cAMP in cells was evaluated by measuring absorbance (408 nm) with an ELISA kit from the supernatant taken after centrifuging cells dissolved in 0.1M HCl.
# [4] = After Dosing, water extract 300 mg/kg, tolterodine 1 mg/kg
# [5] = after vs before dosing, increase
smiles,measurement,setting,value
"Cc1ccc(O)c([C@H](CCN(C(C)C)C(C)C)c2ccccc2)c1 [Tolterodine, tolterodine]",BC (bladder capacity),[1]; [4],0.41 ± 0.03 mL
same,BP (basal pressure),[1]; [4],4.8 ± 1.1 cmH2O
same,MI (micturition interval),[1]; [4],365.4 ± 31.8 s
same,MP (micturition pressure),[1]; [4],50.5 ± 1.7 cmH2O
same,RV (residual volume),[1]; [4],0 ± 0 mL
same,TP (threshold pressure),[1]; [4],18.1 ± 1.7 cmH2O
same,VV (voiding volume),[1]; [4],0.41 ± 0.03 mL
same,"BC, Percentage Change (%)",[1]; [5],36.7% ↑
same,"MI, Percentage Change (%)",[1]; [5],46.4% ↑
same,"VV, Percentage Change (%)",[1]; [5],36.7% ↑
"CCN(CC)CC#CCOC(=O)C(O)(c1ccccc1)C1CCCCC1 (stereo not drawn) [Oxybutynin, oxybutynin]",MI (micturition interval),[2],248.50 ± 144.43 s
same,VV (voiding volume),[2],0.24 ± 0.15 mL
same,BC (bladder capacity),[3],0.46 ± 0.14 mL
same,BP (basal pressure),[3],9.7 ± 3.1 cm H2O
same,MI (micturition interval),[3],221.54 ± 75.20 s
same,MP (micturition pressure),[3],29.2 ± 7.9 cm H2O
same,RV (residual volume),[3],0.30 ± 0.13 mL
same,TP (threshold pressure),[3],17.6 ± 4.3 cm H2O
same,VV (voiding volume),[3],0.16 ± 0.08 mL
same,cAMP,muscarinic M2 receptor,28.21 pmol/mL
same,"cAMP, % of forskolin",muscarinic M2 receptor,91.39%

# From patent US10172899B2, “Composition for preventing, treating and improving of voiding dysfunction comprising extract from Piper longum L” (priority 2014, dated 2019)
